Measured values published in the supplement of paper PMC6045584.
± gives the standard deviation of the averaged measurements.

Assays:
[1] = compound: CCn1c(C(=O)N(C2CC2)C2CC2)cc2c3c(ncn3C)c(Nc3cc(C)n(C)n3)nc21; assay: surviving fraction relative to DMSO-only wells; higher = less growth inhibition; details: exposure time: 5 days
Outline: (§1)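 Viability was determined by CellTiter-Glo luminescence, expressed as surviving fraction normalised to the median of DMSO-only wells. The cells were log-phase tumour cell lines seeded at 250–500 per well in 384-well plates and, after 24 hours, exposed continuously for five days to inhibitors at 0.5, 1, 5, 10, 50, 100, 500 and 1000 nM. Three screens per line were run, keeping only lines with replicate Pearson r >0.7 and median Z' >0.3.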

FORETINIB = compound: COc1cc2c(Oc3ccc(NC(=O)C4(C(=O)Nc5ccc(F)cc5)CC4)cc3F)ccnc2cc1OCCCN1CCOCC1 [FORETINIB]; assay: as above; details: exposure time: 5 days
Outline: as §1

Row | Test System | surviving fraction ([1]; 0.5 nM) | surviving fraction ([1]; 1 nM) | surviving fraction ([1]; 5 nM) | surviving fraction ([1]; 10 nM) | surviving fraction ([1]; 50 nM) | surviving fraction ([1]; 100 nM) | surviving fraction ([1]; 500 nM) | surviving fraction ([1]; 1000 nM) | surviving fraction (FORETINIB; 0.5 nM) | surviving fraction (FORETINIB; 1 nM) | surviving fraction (FORETINIB; 5 nM) | surviving fraction (FORETINIB; 10 nM) | surviving fraction (FORETINIB; 50 nM) | surviving fraction (FORETINIB; 100 nM) | surviving fraction (FORETINIB; 500 nM) | surviving fraction (FORETINIB; 1000 nM)
1 | SG27 HEADNECK | 0.996 ± 0.14 | 0.974 ± 0.089 | 1.01 ± 0.067 | 1.01 ± 0.056 | 1.02 ± 0.077 | 1.03 ± 0.11 | 0.915 ± 0.074 | 0.931 ± 0.17 | 0.986 ± 0.14 | 1.12 ± 0.063 | 1.07 ± 0.11 | 1.11 ± 0.14 | 0.962 ± 0.12 | 1.02 ± 0.075 | 0.901 ± 0.11 | 0.829 ± 0.078
2 | SG28 HEADNECK | 1.06 ± 0.11 | 1.05 ± 0.038 | 1.02 ± 0.025 | 1.02 ± 0.046 | 1.13 ± 0.043 | 0.954 ± 0.096 | 0.951 ± 0.081 | 0.95 ± 0.093 | 1.04 ± 0.07 | 1.15 ± 0.12 | 1.12 ± 0.077 | 0.972 ± 0.011 | 1.02 ± 0.054 | 0.941 ± 0.054 | 0.826 ± 0.023 | 0.512 ± 0.046
3 | SG31 HEADNECK | 1.04 ± 0.069 | 1.02 ± 0.043 | 1.02 ± 0.12 | 0.875 ± 0.1 | 0.949 ± 0.13 | 1.08 ± 0.46 | 0.955 ± 0.16 | 0.961 ± 0.06 | 1.38 ± 0.16 | 1.41 ± 0.11 | 1.1 ± 0.18 | 1.09 ± 0.21 | 0.969 ± 0.14 | 1.12 ± 0.11 | 1.02 ± 0.17 | 0.898 ± 0.087
4 | SG32 HEADNECK | 0.996 ± 0.081 | 1.17 ± 0.013 | 1.22 ± 0.2 | 1.22 ± 0.25 | 0.95 ± 0.19 | 0.98 ± 0.12 | 1.02 ± 0.24 | 0.86 ± 0.022 | 1.15 ± 0.13 | 1.24 ± 0.36 | 1.27 ± 0.19 | 1.22 ± 0.041 | 1.03 ± 0.1 | 1.17 ± 0.26 | 0.374 ± 0.011 | 0.264 ± 0.0095
5 | SG43 HEADNECK | 1.02 ± 0.22 | 1.02 ± 0.15 | 0.746 ± 0.015 | 0.935 ± 0.19 | 1.08 ± 0.27 | 0.767 ± 0.2 | 0.962 ± 0.31 | 0.784 ± 0.22 | 1.03 ± 0.26 | 0.918 ± 0.14 | 0.678 ± 0.063 | 0.732 ± 0.032 | 0.727 ± 0.15 | 0.883 ± 0.12 | 0.545 ± 0.11 | 0.247 ± 0.076
6 | SIHA CERVIX | 0.868 ± 0.064 | 0.906 ± 0.052 | 0.991 ± 0.036 | 0.965 ± 0.041 | 1.04 ± 0.068 | 1.08 ± 0.057 | 0.983 ± 0.11 | 0.91 ± 0.078 | 1.12 ± 0.02 | 1.18 ± 0.04 | 1.09 ± 0.046 | 1.09 ± 0.081 | 1.01 ± 0.066 | 1.01 ± 0.031 | 0.667 ± 0.019 | 0.523 ± 0.0076
7 | SJSA1 BONE | 1.03 ± 0.041 | 1.01 ± 0.028 | 1.02 ± 0.028 | 1.01 ± 0.057 | 1.06 ± 0.021 | 1.07 ± 0.022 | 1.059 ± 0.007 | 1.05 ± 0.034 | 1.14 ± 0.026 | 1.7 ± 0.03 | 1.69 ± 0.15 | 1.74 ± 0.063 | 1.48 ± 0.1 | 1.74 ± 0.075 | 1.46 ± 0.069 | 1.83 ± 0.038
8 | SKBR3 BREAST | 0.949 ± 0.15 | 1.07 ± 0.11 | 0.955 ± 0.11 | 1.04 ± 0.12 | 1.08 ± 0.12 | 1.1 ± 0.049 | 1.04 ± 0.081 | 0.999 ± 0.14 | 1.11 ± 0.02 | 1.14 ± 0.15 | 1.08 ± 0.063 | 1.08 ± 0.15 | 1.13 ± 0.066 | 0.982 ± 0.064 | 0.886 ± 0.065 | 0.868 ± 0.11
9 | SNU475 LIVER | 0.974 ± 0.012 | 0.957 ± 0.049 | 0.973 ± 0.025 | 0.989 ± 0.026 | 0.979 ± 0.051 | 0.959 ± 0.017 | 0.938 ± 0.0085 | 0.895 ± 0.039 | 1.05 ± 0.052 | 1.03 ± 0.025 | 0.957 ± 0.087 | 1 ± 0.036 | 0.967 ± 0.016 | 0.979 ± 0.035 | 0.853 ± 0.055 | 0.502 ± 0.03
10 | SUM44 BREAST | 0.98 ± 0.056 | 1 ± 0.0096 | 1.04 ± 0.026 | 0.997 ± 0.086 | 1.03 ± 0.08 | 1.12 ± 0.025 | 1.02 ± 0.068 | 1.01 ± 0.057 | 1.14 ± 0.27 | 1.19 ± 0.36 | 1.18 ± 0.27 | 1.23 ± 0.31 | 1.19 ± 0.21 | 1.26 ± 0.32 | 1.11 ± 0.17 | 1.12 ± 0.19
